Peptide text beside a SMILES is read from it.
Assays:
ZIKV strain MR766 [1] = assay: ZIKV RNA in infected Vero cells, peptide pre-treatment (real-time RT-PCR); assay type: cell-based, Zika virus; settings: for ZIKV RNA compared with untreated controls: peptide 2 µM, 2 h before ZIKV MOI 0.5, re-treated at 24 h, 48-h post-infection, RT-PCR normalized to GAPDH, N = 3
Protocol: (§1) Human fetal astrocytes were derived from a single-cell isolation process of fetal brain tissues as previously described ([25], [26]). Briefly, dissociated brain tissue was incubated with 0.25% trypsin for 30 min, followed by neutralization with 10% fetal bovine serum (FBS), and further dissociated by trituration. The single-cell suspension was cultured as adherent cells in DMEM/F12 (Thermo Fisher Scientific, Waltham, MA, USA), supplemented with 10% FBS, penicillin (50 units/mL), and streptomycin (50 µg/mL) (Thermo Fisher Scientific). […] Vero cells (ATCC, CCL-81), an African green monkey kidney cell line, were maintained in Dulbecco’s Modified Eagle Medium (DMEM) with 5% FBS. Experiments with ZIKV were performed exclusively inside a BioSafety Level 2 (laboratory). All procedures utilized in this study were approved by the Institutional Biosafety Committee (IBC 16-05-013BL2) and followed biosafety level II practices as shown in National Institutes of health (NIH) Guideline Appendix G-II-B. ZIKV strain MR766 (Uganda, 1947) was obtained from ZeptoMetrix Corp., Buffalo, NY, USA, and propagated in Vero cells. ZIKV infection of the Vero cells and fetal astrocytes was previously characterized ([27]) and all infections in the current studies were at the MOI of 0.5.
(§2) Total mRNA was isolated with TRIzol Reagent (Thermo Fisher Scientific) and RNeasy Mini Kit (QIAGEN Inc., Valencia, CA, USA) following the manufacturer’s recommendations. Two real-time RT-PCR methods were used for the current studies. First, SYBR Green-based RT-PCR assay was used to determine intracellular ZIKV RNA in Vero cells. For this assay, reverse transcription was performed using Verso cDNA synthesis Kit (Thermo Fisher Scientific) and 1 µg of total RNA in a 15-µL final volume. The RT-PCR analyses were performed using 7.5-µL SYBR Green PCR Master Mix (Thermo Fisher Scientific) with 0.5-µL cDNA, 1.5-µL H2O, 5.5-µL oligonucleotide primer pairs at 10 µM. […] GG-3. PCR program: 1, 50°C for 2 min; 2, 95°C for 2 min; 3, 95°C for 15 s; 4, specific annealing temperature for 15 s; 5, 72°C for 1 min. Steps 2–4 were repeated 40 times. All samples were amplified in triplicate for analysis. Relative ZIKV RNA levels were determined and standardized with a GAPDH internal control using comparative ΔΔCT method ([35]). Second, TaqMan-based RT-PCR assay was used to determine intracellular ZIKV RNA and other gene expressions in Figures 3–6 and extracellular ZIKV RNA in Figure 3. The TaqMan assay was performed in a StepOne^TM Real-Time PCR system (Thermo Fisher Scientific). Primers used for TaqMan real-time RT-PCR were all from the Thermo Fisher Scientific, which included ZIKV (forward sequence: 5-[…]-3, reverse sequence: 5- […]-3, and probe sequence: 5′-[…]-3), IFN-α2 (Hs00265051_s1), IFN-β1 (Hs01077958_s1), eukaryotic 18-s rRNA (Hs99999901_s1), β-actin (Hs99999903_m1), and GAPDH (Catalog number: 4310884E). Relative ZIKV mRNA levels were determined and standardized with a GAPDH or 18-s rRNA endogenous control using comparative ΔΔCT method ([35]). […] For ZIKV in supernatants, RNA was extracted from the supernatants through TRIzol™ LS Reagent (Thermo Fisher Scientific, 10296028) following the manufacturer’s manual. […] Quantitative genomic RNA from ZIKV (NR-1838DQ, ATCC) was used as a standard to calculate viral copies.

ZIKV strain MR766 [2] = assay: Intracellular ZIKV RNA in infected human fetal astrocytes, peptide pre-treatment (real-time RT-PCR); assay type: cell-based, Zika virus; settings: for Reduction of ZIKV RNA levels: astrocytes, 10 µM, at 48 h; for Intracellular ZIKV RNA, % of the untreated ZIKV group / Dose dependence of intracellular ZIKV RNA decrease: human fetal astrocytes, 48 h; for Intracellular ZIKV RNA, % of the untreated ZIKV group: 2 h pre-treatment, ZIKV MOI 0.5, re-treated at 24 h, normalized to GAPDH, N = 3; for Dose dependence of intracellular ZIKV RNA decrease: pre-treatment 0.4 to 10 µM, ZIKV MOI 0.5
Protocol: as §1, §2

IFN-α2 = IFN-α2 expression in human fetal astrocytes (real-time RT-PCR); assay type: cell-based; settings: for IFN-α2 expression in ZIKV-infected fetal astrocytes: ZIKV MOI 0.5, AMPs 0.4 to 10 µM, 48 h; for IFN-α2 expression in ZIKV-infected fetal astrocytes / IFN-α2 expression in uninfected fetal astrocytes: normalized to 18-s rRNA, N = 3; for IFN-α2 expression in uninfected fetal astrocytes: AMP treatment 48 h
Protocol: as §2

ZIKV strain MR766 [3] = assay: Direct inactivation of ZIKV by AMPs, plaque-forming assay; set-up: species or system Zika virus; settings: 37°C; for Number of infectious virions after direct incubation: 10 µM peptide with ZIKV, all the time points (1, 2, 4 h), plaque assay; for Inactivation of Zika virions: plaque assay on Vero
Protocol: Vero cells were plated into 12-well plates at 5 (10^5 cells/well the day before infection). On the day of infection, the monolayers of Vero cells were inoculated with 100 µL of 10-fold serial dilutions of viral stocks and incubated at 37 °C for 1 h. After viral inoculation, medium containing ZIKV particles was removed and 1 ml overlay containing 0.6% molecular biology grade agarose (Agarose Unlimited, Alachua, FL, USA) in Modified Eagle Medium (Gibco) with 2% FBS. Cells were maintained at 37°C in 5% CO2 for 4 days. On day 5, cells were fixed with 4% paraformaldehyde solution in PBS and stained with 1% crystal violet solution in 20% methanol in water. Viral plaques were photographed using a CanonScan 9950F scanner and each plaque was counted as a plaque-forming unit (PFU). Viral titer was calculated as PFU/[volume virus (mL) × (dilution factor)].
Zika virus viral stocks were diluted to 10^6 PFU/mL with serum-free medium and peptides were added at the indicated final concentrations. The mixtures were incubated at 37°C for 1–4 h. At each time point, 200 µL of the mixtures was removed for virus yield determination. Ten-fold serial dilutions of the mixtures were prepared and number of infectious Zika virions in the inoculum was determined by the aforementioned plaque-forming assay on Vero cell monolayers.
Figure 7 GF-17 directly inactivates Zika virions. (A) Experimental scheme. Briefly, Zika virus (ZIKV) virions were directly treated with antimicrobial peptides at 37°C. Part of the inoculum was removed at the indicated time points and serial diluted for the plaque-forming assay to determine the number of infectious Zika virions. (B) Quantification of the viral plaques was performed and plaque-forming unit at each of the treatment groups was shown. ANOVA and Bonferroni post-test were performed on all groups. *** p < 0.001, as compared with the ZIKV control group (CTL, control).

[4] = uninfected human fetal astrocytes

| SMILES | ZIKV RNA compared with untreated controls (ZIKV strain MR766 [1]) | Reduction of ZIKV RNA levels (ZIKV strain MR766 [2]) | Intracellular ZIKV RNA, % of the untreated ZIKV group (ZIKV strain MR766 [2]; peptide 2 µM) [%] | Intracellular ZIKV RNA, % of the untreated ZIKV group (ZIKV strain MR766 [2]; peptide 10 µM) [%] | Dose dependence of intracellular ZIKV RNA decrease (ZIKV strain MR766 [2]) | IFN-α2 expression in ZIKV-infected fetal astrocytes (IFN-α2) | Increase of IFN-α2 expression in uninfected fetal astrocytes (IFN-α2; uninfected human fetal astrocytes, difference not statistically significant) [folds] | Number of infectious virions after direct incubation (ZIKV strain MR766 [3]) | IFN-α2 expression in uninfected fetal astrocytes (IFN-α2; [4]) | Inactivation of Zika virions (ZIKV strain MR766 [3]; 10 µM peptide mixed with ZIKV (10^6 PFU/mL, serum-free medium), 1-h incubation) [%] | Inactivation of Zika virions (ZIKV strain MR766 [3]; 10 µM peptide mixed with ZIKV, 2-h incubation) [%] | Inactivation of Zika virions (ZIKV strain MR766 [3]; 10 µM peptide mixed with ZIKV, 4-h incubation) [%] | Dose dependence of ZIKV RNA decrease (ZIKV strain MR766 [1]; peptide 0.4, 2 and 10 µM, ZIKV MOI 0.5, 48-h post-infection) |
| --- | --- | --- | --- | --- | --- | --- | --- | --- | --- | --- | --- | --- | --- |
| CC[C@H](C)[C@H](NC(=O)[C@H](CCCCN)NC(=O)[C@H](CCCCN)NC(=O)[C@H](Cc1ccccc1)NC(=O)[C@H](CC(C)C)NC(=O)[C@H](CCCCN)NC(=O)[C@H](CCCCN)NC(=O)[C@H](Cc1ccccc1)NC(=O)[C@H](CCCCN)NC(=O)[C@H](CCCCN)NC(=O)[C@H](CCCNC(=N)N)NC(=O)[C@H](Cc1ccccc1)NC(=O)[C@H](CCCNC(=N)N)NC(=O)[C@H](CCCCN)NC(=O)[C@H](Cc1ccccc1)NC(=O)[C@H](CCCNC(=N)N)NC(=O)CN)C(=O)N[C@@H](CO)C(=O)O [BMAP-18] (H-GRFKRFRKKFKKLFKKIS-OH; N-terminus and C-terminus assumed) | significantly decreased ZIKV RNA | > 95% | 15 | 4 | decreased intracellular ZIKV RNA in a dose-dependent manner | significantly increased IFN-α2 expression levels in a dose-dependent manner | 7 | did not significantly change the number of infectious virions |  |  |  |  |  |
| CC[C@H](C)[C@H](NC(=O)[C@H](CCCNC(=N)N)NC(=O)[C@H](CCC(N)=O)NC(=O)[C@@H](NC(=O)[C@@H](NC(=O)[C@H](CCCNC(=N)N)NC(=O)[C@H](CCCCN)NC(=O)[C@H](Cc1ccccc1)NC(=O)CN)[C@@H](C)CC)C(C)C)C(=O)N[C@@H](CCCCN)C(=O)N[C@@H](CC(=O)O)C(=O)N[C@@H](Cc1ccccc1)C(=O)N[C@@H](CC(C)C)C(=O)N[C@@H](CCCNC(=N)N)C(=O)N[C@@H](CC(N)=O)C(=O)N[C@@H](CC(C)C)C(=O)N[C@H](C(N)=O)C(C)C [GF-17] (H-GFKRIVQRIKDFLRNLV-NH2; N-terminus and C-terminus assumed) | significantly decreased ZIKV RNA | over 99% | 46 | 1 | decreased intracellular ZIKV RNA in a dose-dependent manner | significantly increased IFN-α2 expression levels in a dose-dependent manner |  |  | significantly increased IFN-α2 expression | > 95 | > 99 | 99 |  |
| CC[C@H](C)[C@H](NC(=O)[C@H](CCCNC(=N)N)NC(=O)[C@H](CCC(N)=O)NC(=O)[C@@H](NC(=O)[C@@H](NC(=O)[C@@H](N)CCCNC(=N)N)[C@@H](C)CC)C(C)C)C(=O)N[C@@H](CCCCN)C(=O)N[C@@H](CC(=O)O)C(=O)N[C@@H](Cc1ccccc1)C(=O)N[C@@H](CC(C)C)C(=O)O [RI-10, reference compound] (H-RIVQRIKDFL-OH; N-terminus and C-terminus assumed) |  |  |  |  | but not RI-10, decreased intracellular ZIKV RNA | but not RI-10, significantly increased IFN-α2 expression levels |  | did not significantly change the number of infectious virions | did not affect the expression levels of IFN-α2 |  |  |  | except RI-10 showed dose-dependent decrease of ZIKV RNA |

— article PMC5906549, “Cathelicidin-Derived Antimicrobial Peptides Inhibit Zika Virus Through Direct Inactivation and Interferon Pathway” (Frontiers in Immunology, 2018)
